Assay results as given in article PMC7982521, “Studies on the Changes of Pharmacokinetics Behaviors of Phytochemicals and the Influence on Endogenous Metabolites After the Combination of Radix Bupleuri and Radix Paeoniae Alba Based on Multi-Component Pharmacokinetics and Metabolomics” (Frontiers in Pharmacology, 2021).
Where two headings read alike, the source gives them in different places.

Assay: Multi-component pharmacokinetics in rat plasma after oral administration of RB, RPA or RB-RPA extracts (UPLC-HRMS, non-compartmental analysis)
Type: in vivo, Sprague-Dawley rats
Conditions: for AUC0-t / AUC0-∞ / Cmax / t1/2 / tmax / AUC(0-inf) / half-life / Cmax, second value / tmax, second value: rat plasma, n = 7; for AUC0-t / AUC0-∞ / Cmax / t1/2 / tmax / AUC(0-inf) / half-life: mean ± SD
Procedure: (Beijing, China, No. SCXK2018-0011). […] All rats were free to access the water and food until 12 h before the experiment. The animal study was reviewed and approved by the Experimental Animal Ethical Committee of Modern Research Center for Traditional Chinese Medicine, Shanxi University (animal ethic approval number: SXULL2018018), and all experimental procedures were carried out in accordance with the NIH Guide for the Care and Use of Laboratory Animals. After one week of adaptation, twenty-one rats were divided into three groups randomly, with seven rats in each group: 1) RPA group, were oral administration of Radix Paeoniae Alba extract (45 g-herb/kg); 2) RB group, were oral administration of Radix Bupleuri extract (45 g-herb/kg); 3) RB-RPA group, were oral administration of powder mixture of Radix Bupleuri and Radix Paeoniae Alba extracts (containing 45 g-herb/kg Radix Bupleuri and 45 g-herb/kg Radix Paeoniae Alba). […] Each group received intragastric administration with a volume of 10 ml/kg (rat body weight). […] All rats were free to access the water during the experiment. The blood samples at each time point were collected from seven rats. The blood samples were centrifuged at 4,000 rpm for 10 min and frozen at -80°C until analysis. Using a Thermo-Fisher Dionex UltiMate 3000 UHPLC system coupled with a Q Exactive Orbitrap-MS (Thermo-Fisher, United States) and Xcalibur workstation (Thermo-Fisher Scientific Inc.,Waltham, MA, United States) to acquire UPLC-HRMS raw data. Chromatographic separation of herb extracts and plasma samples was performed on an Acquity UPLC HSS T3 column (2.1 mm × 100 mm, 1.8 μm) maintained at 37°C. The flow rate was 0.2 ml/min and the injection volume was 5 μL. […] Mass spectrometry detection conditions were set as follows: the MS data were acquired under positive and negative ionization modes via heated electrospray ionization (HESI) source. […] The Q Exactive Orbitrap-MS has a fast positive and negative ion switching function, which could switch between positive-negative ion modes during the analysis of the same sample. So, we applied the method of switching ion modes in the detection process to quantify all analytes better. […] UPLC/MS/MS calibration and quantitation data were processed with Xcalibur workstation (Thermo-Fisher Scientific Inc., Waltham, MA, United States). For the eight components with standard reference, calculating their concentrations from the standard curves. For the other 30 components without standard reference, their concentrations were analyzed following the regression equations of homologous compounds ([Qiao et al., 2012]): paeoniflorin for P1 and M1 to M3; methylgallate for M4 to M10; saikosaponin […] and […]; saikosaponin […]; saikosaponin […]; saikosaponin B2 for P11 and M25 to […].

[1] = oral RB single extract 45 g-herb/kg
[2] = oral RB-RPA mixed extracts (45 g-herb/kg RB + 45 g-herb/kg RPA)
[3] = male, Sprague-Dawley, rat, plasma, po, 45 g/kg, oral RB single extract 45 g-herb/kg
[4] = oral administration of mixed extracts RB-RPA
[5] = oral administration of single extract RPA

C[C@H]1O[C@@H](O[C@@H]2CC[C@@]3(C)[C@@H](CC[C@]4(C)[C@@H]3C=C[C@]35OC[C@@]6(CCC(C)(C)C[C@H]63)[C@@H](O)C[C@]54C)[C@@]2(C)CO)[C@H](O)[C@@H](O)[C@H]1O [Prosaikogenin G]
AUC0-t [1]: 10.10 ± 4.96 ng·h/mL | AUC0-∞ [1]: 11.33 ± 5.65 ng·h/mL | Cmax [1]: 5.81 ± 2.73 ng/mL | t1/2 [1]: 1.48 ± 0.50 h | tmax [1]: 0.79 ± 0.10 h | AUC0-t [2]: 11.50 ± 5.88 ng·h/mL | AUC0-∞ [2]: 12.94 ± 6.57 ng·h/mL | Cmax [2]: 6.08 ± 3.17 ng/mL | t1/2 [2]: 1.48 ± 0.63 h | tmax [2]: 0.75 ± 0.16 h

CC(=O)OC[C@H]1O[C@@H](O[C@H]2[C@@H](O)[C@@H](C)O[C@@H](O[C@H]3CC[C@@]4(C)[C@@H](CC[C@]5(C)[C@@H]4C=CC46OCC7(CCC(C)(C)C[C@H]74)[C@@H](O)C[C@]65C)[C@]3(C)CO)[C@@H]2O)[C@H](O)[C@@H](O)[C@@H]1O (stereo partly shown) [Acetyl-saikosaponin A]
AUC0-t [1]: 51.16 ± 11.83 ng·h/mL | AUC0-∞ [1]: 57.19 ± 10.74 ng·h/mL | Cmax [1]: 29.39 ± 11.24 ng/mL | t1/2 [1]: 3.50 ± 0.74 h | tmax [1]: 0.46 ± 0.19 h | AUC0-t [2]: 62.08 ± 16.91 ng·h/mL | AUC0-∞ [2]: 67.17 ± 16.28 ng·h/mL | Cmax [2]: 27.55 ± 9.89 ng/mL | t1/2 [2]: 4.38 ± 1.27 h | tmax [2]: 0.54 ± 0.19 h

Acetyl-saikosaponin B2
AUC0-t [1]: 16.86 ± 4.34 ng·h/mL | AUC0-∞ [1]: 19.75 ± 3.88 ng·h/mL | Cmax [1]: 14.82 ± 4.41 ng/mL | t1/2 [1]: 3.81 ± 1.29 h | tmax [1]: 0.42 ± 0.13 h | AUC0-t [2]: 23.18 ± 12.77 ng·h/mL | AUC0-∞ [2]: 26.03 ± 13.58 ng·h/mL | Cmax [2]: 12.94 ± 6.29 ng/mL | t1/2 [2]: 3.18 ± 1.01 h | tmax [2]: 0.42 ± 0.13 h

C[C@H]1O[C@@H](O[C@H]2CC[C@@]3(C)[C@@H](CC[C@]4(C)[C@@H]3C=C[C@]35OC[C@@]6(CCC(C)(C)C[C@H]63)[C@@H](O)C[C@]54C)[C@]2(C)CO)[C@H](O)[C@@H](O[C@@H]2O[C@H](CO)[C@@H](O)[C@H](O)[C@H]2O)[C@H]1O [Saikosaponin A]
AUC(0-inf) [3]: 104 ± 38.6 ng·h/mL | half-life [3]: 2.13 ± 0.43 h | AUC0-t (male, Sprague-Dawley, rat, plasma, po, 45 g/kg, oral RB single extract 45 g-herb/kg, read-out: AUC0-t): 102 ± 38.5 ng·h/mL | Cmax (male, Sprague-Dawley, rat, plasma, po, 45 g/kg, oral RB single extract 45 g-herb/kg, read-out: Cmax): 68.4 ± 16.9 ng/mL | tmax (male, Sprague-Dawley, rat, plasma, po, 45 g/kg, oral RB single extract 45 g-herb/kg, read-out: tmax): 0.54 ± 0.1 h | AUC(0-inf) (male, Sprague-Dawley, rat, plasma, po, 45 g/kg, oral RB-RPA mixed extracts (45 g-herb/kg RB + 45 g-herb/kg RPA)): 176 ± 45.9 ng·h/mL | Cmax (male, Sprague-Dawley, rat, plasma, po, 45 g/kg, oral RB-RPA mixed extracts (45 g-herb/kg RB + 45 g-herb/kg RPA), read-out: Cmax): 46.5 ± 12.4 ng/mL | half-life (male, Sprague-Dawley, rat, plasma, po, oral RB-RPA mixed extracts (45 g-herb/kg RB + 45 g-herb/kg RPA)): 3.55 ± 0.57 h | AUC0-t (male, Sprague-Dawley, rat, plasma, po, oral RB-RPA mixed extracts (45 g-herb/kg RB + 45 g-herb/kg RPA), read-out: AUC0-t): 170 ± 48.2 ng·h/mL | tmax (male, Sprague-Dawley, rat, plasma, po, oral RB-RPA mixed extracts (45 g-herb/kg RB + 45 g-herb/kg RPA), read-out: tmax): 0.63 ± 0.21 h | change of t1/2 after combination (rat, oral RB-RPA group vs single herbal group): longer

C[C@H]1O[C@@H](O[C@H]2CC[C@@]3(C)[C@@H](CC[C@]4(C)[C@@H]3C=CC3=C5CC(C)(C)CC[C@]5(CO)[C@H](O)C[C@]34C)[C@]2(C)CO)[C@H](O)[C@@H](O[C@@H]2O[C@H](CO)[C@@H](O)[C@H](O)[C@H]2O)[C@H]1O [Saikosaponin B2]
AUC0-t [1]: 65.14 ± 19.35 ng·h/mL | AUC0-∞ [1]: 67.92 ± 19.39 ng·h/mL | Cmax [1]: 22.33 ± 2.99 ng/mL | t1/2 [1]: 2.70 ± 1.52 h | tmax [1]: 0.67 ± 0.13 h | AUC0-t [2]: 98.63 ± 18.36 ng·h/mL | AUC0-∞ [2]: 104.39 ± 23.28 ng·h/mL | Cmax [2]: 28.19 ± 5.50 ng/mL | t1/2 [2]: 2.89 ± 1.14 h | tmax [2]: 0.83 ± 0.20 h

CC(=O)OC[C@H]1O[C@@H](O[C@H]2[C@@H](O)[C@@H](C)O[C@@H](O[C@H]3CC[C@@]4(C)[C@@H](CC[C@]5(C)[C@@H]4C=CC46OCC7(CCC(C)(C)C[C@H]74)[C@H](O)C[C@]65C)[C@]3(C)CO)[C@@H]2O)[C@H](O)[C@@H](O)[C@@H]1O (stereo partly shown) [Acetyl-saikosaponin D]
AUC0-t [1]: 23.58 ± 6.77 ng·h/mL | AUC0-∞ [1]: 25.54 ± 7.23 ng·h/mL | Cmax [1]: 19.20 ± 6.70 ng/mL | t1/2 [1]: 2.68 ± 0.71 h | tmax [1]: 0.50 ± 0.27 h | AUC0-t [2]: 38.05 ± 21.32 ng·h/mL | AUC0-∞ [2]: 43.25 ± 27.08 ng·h/mL | Cmax [2]: 20.31 ± 12.42 ng/mL | t1/2 [2]: 4.39 ± 1.55 h | tmax [2]: 0.50 ± 0.27 h

CC1(C)CC[C@]23CO[C@@]4(C=C[C@@H]5[C@@]6(C)CC[C@H](O)[C@@](C)(CO)[C@@H]6CC[C@@]5(C)[C@]4(C)C[C@H]2O)[C@@H]3C1 [Saikogenin G]
AUC0-t [1]: 50.01 ± 16.60 ng·h/mL | AUC0-∞ [1]: 57.20 ± 17.81 ng·h/mL | Cmax [1]: 11.26 ± 4.74 ng/mL | t1/2 [1]: 3.96 ± 1.59 h | tmax [1]: 0.75 ± 0.00 h | AUC0-t [2]: 88.79 ± 41.87 ng·h/mL | AUC0-∞ [2]: 99.59 ± 41.70 ng·h/mL | Cmax [2]: 12.67 ± 4.42 ng/mL | t1/2 [2]: 6.53 ± 2.21 h | tmax [2]: 0.71 ± 0.10 h

CC1C2OC3(C)CC(=O)C1CC3(O)O2 (stereo not shown) [Paeonimetabolin I]
AUC0-t [4]: 4248.67 ± 1970.10 ng·h/mL | AUC0-∞ [4]: 4806.68 ± 2129.42 ng·h/mL | Cmax [4]: 575.13 ± 257.81 ng/mL | t1/2 [4]: 7.11 ± 2.01 h | tmax [4]: 0.83 ± 0.13 h | AUC0-t [5]: 4864.64 ± 2525.32 ng·h/mL | AUC0-∞ [5]: 5467.27 ± 2837.33 ng·h/mL | Cmax [5]: 658.61 ± 349.75 ng/mL | t1/2 [5]: 7.39 ± 0.45 h | tmax [5]: 0.75 ± 0.00 h

Pyrogallol glucuronide
AUC0-t [4]: 643.56 ± 348.44 ng·h/mL | AUC0-∞ [4]: 825.47 ± 393.90 ng·h/mL | Cmax [4]: 47.97 ± 13.98 ng/mL | t1/2 [4]: 10.49 ± 2.78 h | tmax [4]: 2.92 ± 1.43 h | AUC0-t [5]: 262.73 ± 101.68 ng·h/mL | AUC0-∞ [5]: 336.41 ± 159.76 ng·h/mL | Cmax [5]: 34.21 ± 4.94 ng/mL | t1/2 [5]: 6.16 ± 2.02 h | tmax [5]: 2.67 ± 1.85 h | AUC0-∞ after combination relative to RPA alone (rat, oral RB-RPA vs RPA alone): 245.38% | Cmax after combination relative to RPA alone (rat, oral RB-RPA vs RPA alone): 140.22% | t1/2 after combination relative to RPA alone (rat, oral RB-RPA vs RPA alone): 170.29%

CC1(C)CC[C@@]2(CO)C(=C3C=C[C@@H]4[C@@]5(C)CC[C@H](O)[C@@](C)(CO)[C@@H]5CC[C@@]4(C)[C@]3(C)C[C@H]2O)C1 [Saikogenin D]
AUC0-t [1]: 81.39 ± 36.37 ng·h/mL | AUC0-∞ [1]: 85.33 ± 40.21 ng·h/mL | Cmax [1]: 16.51 ± 8.25 ng/mL | t1/2 [1]: 5.10 ± 1.21 h | tmax [1]: 1.17 ± 0.26 h | AUC0-t [2]: 131.78 ± 59.75 ng·h/mL | AUC0-∞ [2]: 141.32 ± 65.28 ng·h/mL | Cmax [2]: 19.75 ± 10.49 ng/mL | t1/2 [2]: 5.78 ± 2.37 h | tmax [2]: 0.92 ± 0.20 h

C[C@H]1O[C@@H](O[C@H]2CC[C@@]3(C)[C@@H](CC[C@]4(C)[C@@H]3C=CC3=C5CC(C)(C)CC[C@]5(CO)[C@H](O)C[C@]34C)[C@]2(C)CO)[C@H](O)[C@@H](O)[C@H]1O [Prosaikogenin D]
AUC0-t [1]: 27.23 ± 10.38 ng·h/mL | AUC0-∞ [1]: 31.50 ± 8.81 ng·h/mL | Cmax [1]: 7.47 ± 3.88 ng/mL | t1/2 [1]: 3.38 ± 1.75 h | tmax [1]: 0.83 ± 0.52 h | Cmax, second value [1]: 6.32 ± 3.38 ng/mL | tmax, second value [1]: 1.75 ± 1.02 h | AUC0-t [2]: 32.79 ± 15.58 ng·h/mL | AUC0-∞ [2]: 34.59 ± 14.83 ng·h/mL | Cmax [2]: 8.53 ± 4.68 ng/mL | t1/2 [2]: 2.98 ± 1.07 h | tmax [2]: 0.71 ± 0.40 h | Cmax, second value (oral RB-RPA mixed extracts): 8.42 ± 4.54 ng/mL | tmax, second value (oral RB-RPA mixed extracts): 1.86 ± 0.92 h
